Test results as given in US20110263693A1, “CELASTROL, GEDUNIN, AND DERIVATIVES THEREOF AS HSP90 INHIBITORS” (DANA-FARBER CANCER INSTITUTE, INC., priority 2006, published 2011).

What was measured:
[1] = test system: celastrol signature; assay: Connectivity Map query with the celastrol signature; type: cell-based, human; set-up: key to celastrol score (connectivity score): connectivity score, based on Kolmogorov-Smirnov statistic; conditions: for celastrol score (connectivity score): enrichment of the celastrol signature (1.25 μM celastrol at 6 h, LNCaP) in the compound's Connectivity Map profiles, 6 hr treatment
How it was run: (§1)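 LNCaP cells received celastrol 1.25 μM or gedunin 20 μM for 6 h. Each signature was scored by Kolmogorov–Smirnov-based connectivity against 453 build01 profiles, mostly 6 h treatments of MCF7 cells.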

[2] = test system: gedunin signature; assay: Connectivity Map query with the gedunin signature; type: cell-based, human; set-up: key to gedunin score (connectivity score): connectivity score, based on Kolmogorov-Smirnov statistic; conditions: for gedunin score (connectivity score): enrichment of the gedunin signature (20 μM gedunin at 6 hours, LNCaP) in the compound's Connectivity Map profiles, 6 hr treatment
How it was run: as §1

Row | SMILES | celastrol score (connectivity score) [1] | gedunin score (connectivity score) [2] | celastrol rank ([1]; rank by celastrol score among 164 Connectivity Map compounds) | gedunin rank ([2]; rank by gedunin score among 164 Connectivity Map compounds)
1 | CCCCC/C=C\C/C=C\C/C=C\C/C=C\CCCC(=O)O [arachidonic acid] | 0 | −0.222 | – | –
2 | CN(CCOc1ccc(CC2SC(=O)NC2=O)cc1)c1ccccn1 (stereo not shown) [rosiglitazone] | 0.098 | 0 | – | –
3 | NC(CO)C(=O)NNCc1ccc(O)c(O)c1O (stereo not shown) [benserazide] | 0 | −0.441 | – | –
4 | CS(=O)(=O)c1ccc(-n2nc(C(F)(F)F)cc2-c2ccc(F)cc2)cc1 [SC-58125] | −0.112 | 0.09 | – | –
5 | COC(=O)Nc1nc2ccc(C(=O)c3cccs3)cc2[nH]1 [nocodazole] | 0.517 | 0.436 | – | –
6 | Cn1cnc([N+](=O)[O-])c1Sc1ncnc2nc[nH]c12 [azathioprine] | 0.552 | 0.361 | – | –
7 | O=C1CCc2c(ccc3ccccc23)O1 [splitomicin] | −0.525 | 0 | – | –
8 | N=C(N)NC(N)=Nc1ccccc1 [phenyl biguanide] | 0 | 0 | – | –
9 | CCOC(=O)C1=C(C)NC(C)=C(C(=O)OC)C1c1cccc([N+](=O)[O-])c1 (stereo not shown) [nitrendipine] | 0 | 0 | – | –
10 | CC(C)(Sc1cc(C(C)(C)C)c(O)c(C(C)(C)C)c1)Sc1cc(C(C)(C)C)c(O)c(C(C)(C)C)c1 [probucol] | 0.332 | 0 | – | –
11 | CC1=C(CC(=O)O)c2cc(F)ccc2/C1=C\c1ccc([S+](C)[O-])cc1 (stereo not shown) [sulindac] | 0.207 | 0.177 | – | –
12 | CC1=C(/C=C/C(C)=C/C=C/C(C)=C/C(=O)O)C(C)(C)CCC1 [tretinoin] | −0.084 | −0.206 | – | –
13 | COc1cc2c(c(OC)c1OC)-c1ccc(OC)c(=O)cc1[C@@H](NC(C)=O)CC2 [colchicine] | 0.391 | 0.192 | – | –
14 | C[C@]12CCC(=O)C=C1CC[C@H]1[C@@H]3CC[C@](O)(C(=O)CO)[C@@]3(C)C[C@H](O)[C@@]12F [fludrocortisone] | 0 | 0 | – | –
15 | CC1(C)O[C@@H]2[C@@H](CO[C@@]3(COS(N)(=O)=O)OC(C)(C)O[C@@H]23)O1 [topiramate] | 0 | 0 | – | –
16 | N=C(N)c1ccc(OCCCCCOc2ccc(C(=N)N)cc2)cc1 [pentamidine] | 0 | 0.456 | – | –
17 | O=C1CCC(N2C(=O)c3ccccc3C2=O)C(=O)N1 (stereo not shown) [thalidomide] | −0.256 | 0.121 | – | –
18 | C[C@]12CC[C@@H]3c4ccc(O)cc4C[C@@H](CCCCCCCCC[S+]([O-])CCCC(F)(F)C(F)(F)F)[C@H]3[C@@H]1CC[C@@H]2O (stereo partly shown) [fulvestrant] | 0.069 | 0.19 | – | –
19 | COc1cc(/C=C(\C#N)C(N)=O)cc(CSc2nc3ccccc3s2)c1O [tyrphostin AG-825] | 0 | 0 | 137 | 141
